In one series the test system is LYPLA1/2. The series can be described thus: Gel filtration to assess mode of action, HeLa cell lysate. The series is classed as biochemical, human. To be noted: 200 nM or 1000 nM, FP-Rh labeling before and after gel filtration. As for the experimental part: In this assay, a complex proteome was incubated with test compound and a fraction of the assay mixture was passaged over a Sephadex G-25M column before reaction with FP-Rh and SDS-PAGE analysis as described above.
Protocol Summary: HeLa cell lysate (1 mL of 1 mg/ml in DPBS) was treated with test compound (200 nM or 1000 nM, from 50× stock in DMSO) or DMSO only (no compound control). Test compounds were incubated for 30 minutes at 37° C. An aliquot (50 μL) was removed from each reaction, and the remaining sample was passaged over a Sephadex G-25M desalting column. An aliquot (50 μL, 1 mg/mL protein, eluted in DPBS) was removed, and pre- and post-filtration aliquots were reacted with FP-Rh (50× stock in DMSO; 2 μM final concentration). The reaction was incubated for 30 minutes at 25° C., quenched with 16 μL 4× SDS-PAGE loading buffer (reducing), separated by SDS-PAGE and visualized by in-gel fluorescent scanning. The percentage activity remaining was determined by measuring the integrated optical density of the LYPLA1/2 bands (quantified together) relative to a DMSO-only (no compound) control. The percent recovery was calculated by comparing percent inhibition before and after gel filtration for each test compound concentration.

The next series deals with T1, human LYPLA2 (Homo sapiens, UniProt O95372).
T1 construct: endogenous human LYPLA1/2 in a HeLa soluble proteome; endogenous in cells; host or cells: HeLa (soluble proteome in vitro; cultured cells in situ)
The series can be described thus: IC50 by gel-based competitive ABPP in situ, cultured HeLa cells. The series is classed as cell-based. As to conditions: 2 h, serum-supplemented medium. On the procedure:
(§1) Assay Overview: The purpose of this assay was to determine IC50 values of powder samples of test compounds for enzyme of interest activity in situ using a gel-based competitive ABPP assay. In this assay, cultured cells were treated with test compound, harvested, and lysed. The isolated soluble proteome fraction was reacted with FP-Rh and analyzed by SDS-PAGE as described above.
(§2) Protocol Summary: To cultured HeLa cells (90% confluent) was added fresh DMEM (5 mL total volume; supplemented with 10% FCS) pre-mixed with DMSO or test compound. After 2 hours at 37° C., cells were harvested by scraping, washed twice with 10 mL DPBS, and homogenized by sonication in DPBS. The soluble fraction was isolated by centrifugation (100K×g, 45 minutes) and the protein concentration was adjusted to 1 mg/mL with DPBS. FP-Rh (1 μL of 50× stock in DMSO) was added to a final concentration of 2 μM in 50 μL total reaction volume. The reaction was incubated for 30 minutes at 25° C., quenched with 16 μL 4×SDS-PAGE loading buffer (reducing), separated by SDS-PAGE and visualized by in-gel fluorescent scanning. The percentage activity remaining was determined by measuring the integrated optical density of the enzymes of interest, and anti-target bands relative to a DMSO-only (no compound) control. […]

The target of the next series is T2, human LYPLA1 (Homo sapiens, UniProt O75608).
T2 construct: endogenous human LYPLA1/2 in a HeLa soluble proteome; endogenous in cells; host or cells: HeLa (soluble proteome in vitro; cultured cells in situ)
The description is as above. The series is classed as cell-based. As to conditions: 2 h, serum-supplemented medium. As for the experimental part:
as §1, §2

The next series is described as follows: Stability in PBS. The series is classed as physicochemical. To be noted: 10 μM compound, ambient temperature. On the procedure: Samples were held in the HPLC autosampler at ambient temperature. At approximately 0, 1, 2, 4, 8, 24, and 48 hours the samples were injected on the HPLC. Peak area and retention time were compared between injections. Data was log transformed and represented as half-life. DMSO was added as a co-solvent as needed for solubility.

Series [1] can be described thus: Determination of glutathione reactivity. The series is classed as physicochemical. As to conditions: 10 μM compound, 50 μM glutathione, 37° C., 6 h. As for the experimental part: Compound (10 μM) was incubated at 37° C. for 6 hours in the presence of 50 μM freshly prepared reduced glutathione. At 0 and 6 hours the samples were injected into the HPLC instrument. Peak area and retention time were compared between injections. Samples were evaluated for a glutathione dependent decrease in compound concentration. DMSO was added as a co-solvent as needed for solubility.

Series [2] is described as follows: Solubility in media (DMEM+10% FBS). The series is classed as physicochemical. As to conditions: plasma or biological fluid, kinetic from dmso stock, complete media (DMEM+10% FBS), 22° C., read-out: solubility in DMEM containing 10% serum. As for the experimental part: (§3) Solubility in Media: The solubility of compounds were tested in triplicate in complete media (DMEM+10% FBS). Per well, 198 μL PBS is added to a Millipore Solvinert Hydrophilic PTFE 96 well filter plate: pore size: 0.45 μm (MSRLN0450). Test compounds were introduced from 10 mM DMSO stock solutions (2 μL). The final concentration of DMSO was 1 percent. Samples were allowed to incubate at 22° C. for 18 hours. In the morning the plate was centrifuged where the soluble portion passed through the filter and was collected in a capture plate. The samples were analyzed by HPLC (Agilent 1100 with diode-array detector). Peak area was compared to a standard of known concentration.

A further series in a line: Solubility in PBS. The series is classed as physicochemical. As to conditions: phosphate buffered saline, aqueous buffer, kinetic from dmso stock, PBS pH 7.4, 1% DMSO, 22° C. As for the experimental part:
as §3, with “The” for “Solubility in Media: The”, “phosphate buffered saline (PBS), pH 7.4.” for “complete media (DMEM+10% FBS).”, “passes” for “passed”, “plate. Clotrimazole was included as a control to assure the assay was working properly.” for “plate.”, “HPLC.” for “HPLC (Agilent 1100 with diode-array detector).”

The structures appear in SMILES notation. pIC50: −log10 of the molar value. In brackets after ≈: the same amount, converted by molar mass.

T1 sequence (O95372 whole entry): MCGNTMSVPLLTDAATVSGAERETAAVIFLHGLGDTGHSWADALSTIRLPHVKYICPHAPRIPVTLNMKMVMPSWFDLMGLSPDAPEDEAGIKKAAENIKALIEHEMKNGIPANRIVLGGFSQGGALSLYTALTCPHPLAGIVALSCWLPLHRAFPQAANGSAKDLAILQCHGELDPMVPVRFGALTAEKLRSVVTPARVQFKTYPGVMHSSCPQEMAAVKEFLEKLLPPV
T2 sequence (O75608 whole entry): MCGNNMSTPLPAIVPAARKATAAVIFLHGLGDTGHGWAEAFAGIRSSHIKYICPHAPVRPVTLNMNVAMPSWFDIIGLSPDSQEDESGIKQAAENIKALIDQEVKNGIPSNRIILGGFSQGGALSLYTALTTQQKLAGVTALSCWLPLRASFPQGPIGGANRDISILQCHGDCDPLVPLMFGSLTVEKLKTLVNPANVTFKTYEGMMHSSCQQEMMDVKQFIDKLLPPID

`O=C(ON1C(=O)C2CN(C(=O)N3CCOCC3)CCN2C1=O)N1CCC(CCc2ccc(Cl)cc2)CC1` (stereo not shown) [Compound 1, 7-(morpholine-4-carbonyl)-1,3-dioxohexahydroimidazo[1,5-a]pyrazin-2(3H)-yl 4-(4-chloro-phenethyl)piperidine-1-carboxylate]: in the series on LYPLA1/2, the “binding mode (gel filtration)” value is “irreversible inhibitor”. Besides, the pIC50 at human LYPLA2 is 6.84; on human LYPLA1, 7.06. This compound also showed a half-life at 10 µM in “Stability in PBS” of 1140 min. Also, the reactivity with glutathione entry in series [1] is recorded as “did not show any reactivity”. The solubility at 18 h in series [2] worked out at 46 µM (≈ 24.6 µg/mL); in “Solubility in PBS”, 18 µM (≈ 9.61 µg/mL).

The term pIC50 denotes −log10 of the IC50, conventionally taken in molar units. A low value points to a high IC50. In general, half-life refers to the time in which the quantity being followed falls by half. Low values mean fast loss, high ones slow loss. As usually defined, the solubility is the dissolved amount per volume that the medium holds.

(Values after US9981972B2, “N-hydroxy bicyclic hydantoin carbamates as tools for identification of serine hydrolase targets” (ABIDE THERAPEUTICS, INC., priority 2014, dated 2018).)
